In US20220218630A1, “METHODS AND FORMULATIONS FOR TREATING VISION DISORDERS” (JeniVision Inc., priority 2019, published 2022):

Key:
[1] = Ocular bioavailability following application to the periorbital skin of cynomolgus monkeys (LC/MS/MS); type: in vivo; conditions: for tiotropium level in ciliary muscle / tiotropium level in plasma: 208 μg to periorbital skin of one eye
Experimental: The animals were euthanized at predetermined time points post-dosing: 1, 2, 4, 24 hours. A blood sample and ocular tissue specimens were then taken and prepared for LC/MS/MS analysis.

[2] = system: monkey longitudinal ciliary muscle; assay: Isolated monkey longitudinal ciliary muscle preparation contracted by carbachol (tissue bath); type: cell-based; conditions: for contractile effects of a further application of carbachol following wash-out: after wash-out of drug, carbachol re-applied; for effect on ciliary muscle tone: drug added cumulatively 10^−8 M to 10^−5 M
Experimental: A total of 4 longitudinal strips of ciliary muscle were obtained from one monkey eye. Four tissue baths were used concurrently for each experiment. The monkey ciliary muscle preparations were incubated in Krebs bicarbonate buffer, aerated with 95% O2/5% CO2, containing 10^−6 M indomethacin. The preparations were placed under 200 mg tension with adjustment and allowed to equilibrate for 30 minutes. The temperature was maintained at 37° C. throughout the experiment. After equilibration, the four tissue baths received (50 μL×10^−3M) 10^−6 M carbachol (sufficient to produce a mid-level 40-60% maximal response). If 10^−6 M carbachol was insufficient to cause a meaningful contraction, then (50 μL×3×10^−3M) 3×10^−6 M or (50 μL×10^−2M) 10^−5M was used. The contractile response was allowed to become stable. Tissue tension was recorded on a multi-channel electrophysiological recorder.
When cumulative addition of the drug solutions was completed, the drugs were washed-out by flushing through with buffer three times at a selected volume. Four tissue baths again received 10^−6 M (or selected concentration) carbachol and a stable contractile response was established.

[3] = carbachol pre-contracted preparation

Row | access to the ciliary muscle ([1]; cynomolgus monkey, in vivo) | systemic exposure ([1]; cynomolgus monkey, in vivo) | Structure (SMILES) | contractile effects of a further application of carbachol following wash-out [2] | effect on ciliary muscle tone [2, 3] | tiotropium level in ciliary muscle ([1]; 1 hr post-dosing) [nM] | tiotropium level in plasma ([1]; 1 hr post-dosing) [nM] | tiotropium level in ciliary muscle ([1]; 2 hr post-dosing) [nM] | tiotropium level in plasma ([1]; 2 hr post-dosing) | tiotropium level in ciliary muscle ([1]; 4 hr post-dosing) [nM] | tiotropium level in plasma ([1]; 4 hr post-dosing) | tiotropium level in ciliary muscle ([1]; 24 hr post-dosing) [nM] | tiotropium level in plasma ([1]; 24 hr post-dosing) | systemic exposure ([1]; periorbital skin application, non-optimized aqueous formulations) | magnitude of relaxation ([2]; carbachol pre-contracted preparation, tiotropium compared with salmeterol)
1 | pharmacologically active concentrations | absent | OCc1cc(C(O)CNCCCCCCOCCCCc2ccccc2)ccc1O (stereo not shown) [salmeterol] | blunted | dose-related decrease |  |  |  |  |  |  |  |  |  | 
2 |  |  | C[N+]1(C)[C@@H]2C[C@@H](OC(=O)C(O)(c3cccs3)c3cccs3)C[C@H]1[C@@H]1O[C@@H]12 [tiotropium] | blunted | dose-related decrease | 49 | 4.5 | 77 | BLQ | 5.4 | BLQ | 0 | BLQ | minimal | greater than that recorded for salmeterol
